Reference: ChEMBL document CHEMBL2413073, “Efficient construction of novel D-ring modified steroidal dienamides and their cytotoxic activities” (Eur J Med Chem, 2013)

Experiments:
MCF7 = assay: cells; conditions: Homo sapiens, MCF7, 72 h
Description: Cytotoxicity against human MCF7 cells after 72 hrs by MTT assay

SMMC-7721 [1] = assay: Cytotoxicity against human SMMC7721 cells after 72 hrs by MTT assay; format: functional, cell-based; conditions: SMMC-7721, 72 h
PC-3 = assay: Cytotoxicity against human PC3 cells after 72 hrs by MTT assay; format: functional, cell-based; conditions: PC-3, 72 h
MGC-803 [2] = assay: Cytotoxicity against human MGC803 cells after 72 hrs by MTT assay; format: functional, cell-based; conditions: MGC-803, 72 h
[3] = Cytotoxicity against human EC109 cells after 72 hrs by MTT assay; format: functional, cell-based; conditions: ECa-109, 72 h
MGC-803 [4] = assay: Ratio of 5-fluorouracil IC50 to compound IC50 for human MGC803 cells; format: functional
SMMC-7721 [5] = assay: Ratio of 5-fluorouracil IC50 to compound IC50 for human SMMC7721 cells; format: functional

Row | SMILES | IC50 (MCF7) | IC50 (SMMC-7721 [1]) | IC50 (PC-3) | IC50 (MGC-803 [2]) | IC50 [3] | Ratio IC50 (MGC-803 [4]) | Ratio IC50 (SMMC-7721 [5])
1 | CC(=O)O[C@H]1CC[C@@]2(C)C(=CC[C@@H]3[C@@H]2CC[C@]2(C)C(=C(/C#N)C(N)=O)/C(=C/c4ccccc4C#N)C[C@@H]32)C1 | 22.4 µM |  |  |  |  |  | 
2 | C[C@]12CC[C@H](O)CC1=CC[C@@H]1[C@@H]2CC[C@]2(C)C(=C(/C#N)C(N)=O)/C(=C/c3ccc(F)cc3)C[C@@H]12 | 5.92 µM | 3.34 µM | 14.6 µM | 5.67 µM | 8.69 µM |  | 
3 | CC(=O)O[C@H]1CC[C@@]2(C)C(=CC[C@@H]3[C@@H]2CC[C@]2(C)C(=C(/C#N)C(N)=O)/C(=C/c4ccc(F)c(F)c4)C[C@@H]32)C1 | 4.77 µM | 5.66 µM | 8.48 µM | 1.56 µM | 3.05 µM |  | 
4 | C[C@]12CC[C@H](O)CC1=CC[C@@H]1[C@@H]2CC[C@]2(C)C(=C(/C#N)C(N)=O)/C(=C/c3ccc(Cl)c(Cl)c3)C[C@@H]12 | 2.41 µM | 3.34 µM | 8.84 µM | 5.11 µM | 8.61 µM |  | 
5 | CC(=O)O[C@H]1CC[C@@]2(C)C(=CC[C@@H]3[C@@H]2CC[C@]2(C)C(=C(/C#N)C(N)=O)/C(=C/c4ccc(F)cc4)C[C@@H]32)C1 | 3.67 µM | 5.9 µM | 9.17 µM | 3.11 µM | 4.78 µM |  | 
6 | CC(=O)O[C@H]1CC[C@@]2(C)C(=CC[C@@H]3[C@@H]2CC[C@]2(C)C(=C(/C#N)C(N)=O)/C(=C/c4ccccc4F)C[C@@H]32)C1 | 4.66 µM | 15.4 µM | 11.4 µM | 2.99 µM | 15.6 µM |  | 
7 | CC(=O)O[C@H]1CC[C@@]2(C)C(=CC[C@@H]3[C@@H]2CC[C@]2(C)C(=C(/C#N)C(N)=O)/C(=C/c4ccco4)C[C@@H]32)C1 | 39.4 µM | 22.9 µM | 23.4 µM | 0.12 µM | 39.4 µM | 57 | 
8 | COc1cccc(/C=C2\C[C@H]3[C@@H]4CC=C5C[C@@H](O)CC[C@]5(C)[C@H]4CC[C@]3(C)\C2=C(\C#N)C(N)=O)c1 | 5.57 µM | 6.09 µM | 14 µM | 3.96 µM | 9.27 µM |  | 
9 | CC(=O)O[C@H]1CC[C@@]2(C)C(=CC[C@@H]3[C@@H]2CC[C@]2(C)C(=C(/C#N)C(N)=O)/C(=C/c4ccc(Cl)c(Cl)c4)C[C@@H]32)C1 | 2.21 µM | 2.55 µM | 8.18 µM | 3.2 µM | 4.37 µM |  | 
10 | CC(=O)O[C@H]1CC[C@@]2(C)C(=CC[C@@H]3[C@@H]2CC[C@]2(C)C(=C(/C#N)C(N)=O)/C(=C/c4ccc(C(C)C)cc4)C[C@@H]32)C1 | 15.3 µM | 9.3 µM | 13.5 µM | 1.09 µM | 10 µM |  | 
11 | CC(=O)O[C@H]1CC[C@@]2(C)C(=CC[C@@H]3[C@@H]2CC[C@]2(C)C(=C(/C#N)C(N)=O)/C(=C/c4cccs4)C[C@@H]32)C1 | 22.8 µM | 20.4 µM | 20.4 µM | 0.15 µM | 20.3 µM | 45 | 
12 | COc1cc(/C=C2\C[C@H]3[C@@H]4CC=C5C[C@@H](OC(C)=O)CC[C@]5(C)[C@H]4CC[C@]3(C)\C2=C(\C#N)C(N)=O)cc(OC)c1OC | 5.23 µM | 2.82 µM | 11.7 µM | 6.34 µM | 5.28 µM |  | 
13 | CC(=O)O[C@H]1CC[C@@]2(C)C(=CC[C@@H]3[C@@H]2CC[C@]2(C)C(=C(/C#N)C(N)=O)/C(=C/c4cccc(Cl)c4)C[C@@H]32)C1 | 8.01 µM | 7.12 µM | 11.3 µM | 0.11 µM | 8.97 µM |  | 
14 | C[C@]12CC[C@H](O)CC1=CC[C@@H]1[C@@H]2CC[C@]2(C)C(=C(/C#N)C(N)=O)/C(=C/c3ccccc3Cl)C[C@@H]12 | 5.34 µM | 3.63 µM | 16.9 µM | 5.13 µM | 13.2 µM |  | 
15 | CC(=O)O[C@H]1CC[C@@]2(C)C(=CC[C@@H]3[C@@H]2CC[C@]2(C)C(=C(/C#N)C(N)=O)/C(=C/c4ccccc4)C[C@@H]32)C1 | 7.47 µM | 5.03 µM | 12.8 µM | 3.1 µM | 11.7 µM |  | 
16 | COc1cccc(/C=C2\C[C@H]3[C@@H]4CC=C5C[C@@H](OC(C)=O)CC[C@]5(C)[C@H]4CC[C@]3(C)\C2=C(\C#N)C(N)=O)c1 | 8.36 µM | 11.5 µM | 13 µM | 2.19 µM | 7.04 µM |  | 
17 | CC(=O)O[C@H]1CC[C@@]2(C)C(=CC[C@@H]3[C@@H]2CC[C@]2(C)C(=C(/C#N)C(N)=O)/C(=C/c4ccccc4Cl)C[C@@H]32)C1 | 6.27 µM | 18.4 µM | 24.3 µM | 0.58 µM | 11.9 µM |  | 
18 | O=c1[nH]cc(F)c(=O)[nH]1 [FLUOROURACIL] |  | 9.78 µM | 24.8 µM |  | 10.6 µM |  | 
19 | CC(=O)O[C@H]1CC[C@@]2(C)C(=CC[C@@H]3[C@@H]2CC[C@]2(C)C(=C(/C#N)C(N)=O)/C(=C/c4ccc(Cl)cc4Cl)C[C@@H]32)C1 | 3.98 µM | 5.04 µM | 24.3 µM | 7.38 µM | 5.24 µM |  | 
20 | CC(=O)O[C@H]1CC[C@@]2(C)C(=CC[C@@H]3[C@@H]2CC[C@]2(C)C(=C(/C#N)C(N)=O)/C(=C/c4ccc(C)cc4)C[C@@H]32)C1 | 6.35 µM | 18.6 µM | 22.9 µM | 8.1 µM | 12 µM |  | 
21 | COc1cc(/C=C2\C[C@H]3[C@@H]4CC=C5C[C@@H](O)CC[C@]5(C)[C@H]4CC[C@]3(C)\C2=C(\C#N)C(N)=O)cc(OC)c1OC | 6.54 µM | 7.94 µM | 12.2 µM | 1.83 µM | 8.72 µM |  | 
22 | C[C@]12CC[C@H](O)CC1=CC[C@@H]1[C@@H]2CC[C@]2(C)C(=C(/C#N)C(N)=O)/C(=C/c3ccccc3F)C[C@@H]12 | 6.58 µM | 1.9 µM | 13.3 µM | 2.69 µM | 14.6 µM |  | 5
23 | CC(=O)O[C@H]1CC[C@@]2(C)C(=CC[C@@H]3[C@@H]2CC[C@]2(C)C(=C(/C#N)C(N)=O)/C(=C/c4ccc(Br)cc4)C[C@@H]32)C1 | 2.95 µM | 16.5 µM | 26.8 µM | 2.71 µM | 5.3 µM |  | 
